The test system of test [1] is Human ovarian cancer cell SKOV-3. The test is described as follows: Cell proliferative activity (MTT / cck-8). It is filed as cell-based. To be noted: SK-OV-3, incubated for 96 hours, read-out: Half-Inhibitory Concentration IC50 Human ovarian cancer cell SKOV-3. How it is done:
(§1) Tumor cell line A375: human melanoma cell; H460: lung adenocarcinoma cell; Hela: human cervical cancer cell; HepG2: human liver cancer cell; and SKOV-3: human ovarian cancer cell, were all purchased from ATCC and cultured to logarithmic phase according to the cultivation protocol recommended by ATCC. The cells in the logarithmic phase were plated onto a 96-well plate at 2000-3000 cells/well; in the case of adherent cells, the cells should be adherent to the wall. […] After that, the cell proliferative activity was determined by MTT assay for the tumor cells representing the solid tumor model and by cck-8 assay for the tumor cells representing the hematologic tumor model.

The subject of test [2] is Human cervical cancer cell Hela. Briefly: Cell proliferative activity (MTT / cck-8). It is filed as cell-based. The conditions noted are these: incubated for 96 hours, read-out: Half-Inhibitory Concentration IC50 Human cervical cancer cell Hela. As to the method: as §1
Test [3] concerns Human lung cancer cell H460. Briefly: Cell proliferative activity (MTT / cck-8). It is filed as cell-based. To be noted: NCI-H460, incubated for 96 hours, read-out: Half-Inhibitory Concentration IC50 Human lung cancer cell H460. How it is done:
as §1

A further test has as its system Human melanoma A375. Briefly: Cell proliferative activity (MTT / cck-8). The conditions noted are these: A-375, incubated for 96 hours, read-out: Half-Inhibitory Concentration IC50 Human melanoma A375. The format is cell-based. How it is done:
as §1

Test [4] relates to Human liver cancer cell HepG2. Briefly: Cell proliferative activity (MTT / cck-8). It is filed as cell-based. To be noted: incubated for 96 hours, read-out: Half-Inhibitory Concentration IC50 Human liver cancer cell HepG2. As to the method: as §1
A further test has as its target T1, HDAC1 (Homo sapiens, UniProt Q13547).
T1 construct: purchased BPS Bioscience
Briefly: HDAC inhibitory activity, fluorescence-coupled acetylated peptide substrate assay (Lys-Ac-AMC). The format is biochemical.

In a further test the target is T2, HDAC6 (Homo sapiens, UniProt Q9UBN7).
T2 sequence (Q9UBN7 1-1215): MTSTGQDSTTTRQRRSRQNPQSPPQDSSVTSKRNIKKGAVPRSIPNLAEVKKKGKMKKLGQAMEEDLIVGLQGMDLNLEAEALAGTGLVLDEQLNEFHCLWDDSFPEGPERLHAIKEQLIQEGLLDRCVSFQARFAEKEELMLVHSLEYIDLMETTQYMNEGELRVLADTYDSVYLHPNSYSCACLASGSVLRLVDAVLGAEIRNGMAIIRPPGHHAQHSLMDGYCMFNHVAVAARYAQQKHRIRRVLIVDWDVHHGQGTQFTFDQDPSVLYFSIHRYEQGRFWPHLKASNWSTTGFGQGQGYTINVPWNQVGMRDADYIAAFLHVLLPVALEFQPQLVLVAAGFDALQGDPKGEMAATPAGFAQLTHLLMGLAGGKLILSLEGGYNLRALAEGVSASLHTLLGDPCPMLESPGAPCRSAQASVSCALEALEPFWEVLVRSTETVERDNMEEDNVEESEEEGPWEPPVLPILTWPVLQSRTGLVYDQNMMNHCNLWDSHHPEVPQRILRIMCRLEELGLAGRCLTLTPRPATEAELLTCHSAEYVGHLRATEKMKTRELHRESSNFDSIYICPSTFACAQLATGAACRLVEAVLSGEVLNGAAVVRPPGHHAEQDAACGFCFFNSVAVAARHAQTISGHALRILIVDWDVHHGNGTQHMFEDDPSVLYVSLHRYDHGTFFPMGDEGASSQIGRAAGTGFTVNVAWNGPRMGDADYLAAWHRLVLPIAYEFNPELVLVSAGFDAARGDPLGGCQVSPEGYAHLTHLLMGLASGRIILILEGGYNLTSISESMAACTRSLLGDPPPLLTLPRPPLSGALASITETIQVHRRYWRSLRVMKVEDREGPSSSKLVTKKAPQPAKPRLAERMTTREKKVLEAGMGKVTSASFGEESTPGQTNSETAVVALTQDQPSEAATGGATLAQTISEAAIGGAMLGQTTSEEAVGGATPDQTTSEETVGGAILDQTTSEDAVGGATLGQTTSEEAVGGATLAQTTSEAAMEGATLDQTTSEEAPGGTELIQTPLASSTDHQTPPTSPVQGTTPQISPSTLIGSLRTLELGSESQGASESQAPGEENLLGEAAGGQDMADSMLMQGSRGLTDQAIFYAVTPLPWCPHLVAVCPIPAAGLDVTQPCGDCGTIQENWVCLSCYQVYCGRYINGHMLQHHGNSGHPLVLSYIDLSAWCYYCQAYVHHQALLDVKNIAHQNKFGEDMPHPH
The test is described as follows: HDAC inhibitory activity, fluorescence-coupled acetylated peptide substrate assay. The format is biochemical. The conditions noted are these: for Selection Ratio HDAC1/6: ratio of IC50 HDAC1 to HDAC6; for Selection Ratio HDAC8/6: ratio of IC50 HDAC8 to HDAC6.

The next test concerns HCT116 cells. Briefly: Therapeutic effect on the colon cancer HCT116 model (intravenous).
For a further test, the target named is T3, HDAC8 (Homo sapiens, UniProt Q9BY41).
T3 sequence (Q9BY41 1-377): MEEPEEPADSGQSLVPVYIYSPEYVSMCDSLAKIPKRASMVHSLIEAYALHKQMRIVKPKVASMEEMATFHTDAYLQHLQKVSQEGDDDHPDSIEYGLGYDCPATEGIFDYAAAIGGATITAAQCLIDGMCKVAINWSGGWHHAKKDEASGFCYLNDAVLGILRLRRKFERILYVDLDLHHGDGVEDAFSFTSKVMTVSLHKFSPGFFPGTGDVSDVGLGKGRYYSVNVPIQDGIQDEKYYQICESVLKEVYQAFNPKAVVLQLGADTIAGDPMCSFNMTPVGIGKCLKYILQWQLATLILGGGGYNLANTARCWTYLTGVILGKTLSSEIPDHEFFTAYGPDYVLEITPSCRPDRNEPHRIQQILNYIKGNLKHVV
Briefly: HDAC inhibitory activity, fluorescence-coupled acetylated peptide substrate assay.

Where two headings read alike, the source gives them in different places. Some results are limits rather than exact numbers.

T1 sequence (Q13547 whole entry): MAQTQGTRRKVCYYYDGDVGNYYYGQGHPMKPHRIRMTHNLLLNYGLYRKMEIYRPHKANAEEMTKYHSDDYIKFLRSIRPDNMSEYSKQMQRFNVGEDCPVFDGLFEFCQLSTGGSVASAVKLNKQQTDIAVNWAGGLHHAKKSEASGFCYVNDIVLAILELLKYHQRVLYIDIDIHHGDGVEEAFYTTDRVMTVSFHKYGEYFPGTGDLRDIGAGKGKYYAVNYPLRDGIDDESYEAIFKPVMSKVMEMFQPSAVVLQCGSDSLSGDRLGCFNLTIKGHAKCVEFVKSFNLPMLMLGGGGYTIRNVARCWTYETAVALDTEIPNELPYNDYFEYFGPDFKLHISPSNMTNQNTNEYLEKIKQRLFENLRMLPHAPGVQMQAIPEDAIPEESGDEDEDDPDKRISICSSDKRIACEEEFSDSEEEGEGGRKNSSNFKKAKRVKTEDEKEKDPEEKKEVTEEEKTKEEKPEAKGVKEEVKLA
Description for HDAC8: The HDAC inhibitory activity was determined by fluorescence-coupled acetylated peptide substrate assay (Lys-Ac-AMC). HDAC1 protein was purchased from BPS Bioscience, and the reaction buffer system was a modified tris(hydroxymethyl)aminomethane buffer (pH 7.0). The small molecule compounds of the present invention were prepared by being dissolved in 100% DMSO. HDAC was prepared in a buffer at a certain concentration as an enzyme solution; trypsin and fluorescent group 4-amino-7-coumarin coupled-acetylated peptide (Ac-peptide) substrate were prepared in a buffer at a certain concentration as a substrate solution. The compounds were added into the reaction wells in a 384-well plate at a designed concentration of 10 μM, 1 μM, 0.5 μM, 0.1 μM, 0.05 μM, 0.01 μM, 0.005 μM, 0.001 μM, and 0.00005 μM, respectively, and then 15 μl of the HDAC solution was added into the reaction wells (15 μl of blank buffer to the control well). […] The results were analyzed by GraphPad Prism software and IC50 values were calculated according to the formula: Y=Background Data+(Top Data−Background Data)/(1+10^((Log IC50−X) a curve slope)), where Y: the inhibition rate (%) and X: the concentration of the compound.

`Cc1nc(N(C)c2ccc(OCCCC(=O)NO)cc2)c2ccccc2n1` [II-2, N-hydroxy-4-(4-(methyl(2-methyl-4-quinazolinyl)amino)phenoxy)butanamide]: the IC50 in test [1] lay in the range of 10 to 100 nM; in test [2], 100 to 1000 nM; in test [3] it was 100 to 1000 nM; with Human melanoma A375, 100 to 1000 nM; in test [4], 10 to 100 nM; on HDAC1 (Table 2), 10 to 100 nM. In addition, the IC50 at HDAC1 (Table 3) was 84 nM; against HDAC6 (Table 2), 100 to 1000 nM; on HDAC6 (Table 3) it was 196 nM; against HDAC8 (IC50 HDAC8, Table 2) it was greater than 1000 nM; at HDAC8 (read-out: IC50 HDAC8, Table 3), 1460 nM. The “Selection Ratio HDAC1/6” value at HDAC6 came out at 0.4. Besides, the “Selection Ratio HDAC8/6” value on HDAC6 is 7.5. The “survival time of mice” value in the test with HCT116 cells (50 mg/kg intravenously once every other day, 9 times, vs blank control, P<0.01) is “significantly prolonged the survival time of mice”. In addition, the “effect prolonging the survival time compared with positive control group” value in the test on HCT116 cells (50 mg/kg intravenously, SAHA 50 mg/kg intraperitoneally) is reported as “superior to that of the positive control group”.
Turning to `CCCCCN(c1ccc(OC)c(OCCCC(=O)NO)c1)c1nc(C)nc2ccccc12` [IV-4, N-hydroxy-4-(2-methoxy-5-((2-methyl-4-quinazolinyl)(pentyl)amino)phenoxy)butanamide], the IC50 was greater than 1000 nM in test [1]; 100 to 1000 nM in test [2]; greater than 1000 nM in [3]; 100 to 1000 nM in the test with Human melanoma A375; 100 to 1000 nM in [4]; 10 to 100 nM on HDAC1 (Table 2). Moreover, the IC50 on HDAC6 (Table 2) was 10 to 100 nM; against HDAC8 (IC50 HDAC8, Table 2), greater than 1000 nM.
On to `Cc1nc(N(C)c2ccc(OCCCCC(=O)NO)cc2)c2ccccc2n1` [II-3, N-hydroxy-5-(4-(methyl(2-methyl-4-quinazolinyl)amino)phenoxy)pentanamide], for which the IC50 in test [1] is 100 to 1000 nM; in test [2] it was greater than 1000 nM; in test [3] it was 100 to 1000 nM; in the test on Human melanoma A375, greater than 1000 nM; in test [4], greater than 1000 nM; against HDAC1 (Table 2), 100 to 1000 nM. The IC50 on HDAC1 (Table 3) was 451 nM; at HDAC6 (Table 2), 10 to 100 nM; on HDAC6 (Table 3), 57 nM; on HDAC8 (IC50 HDAC8, Table 2), greater than 1000 nM; at HDAC8 (read-out: IC50 HDAC8, Table 3), 1700 nM. The “Selection Ratio HDAC1/6” value on HDAC6 came out at 7.9. Moreover, the “Selection Ratio HDAC8/6” value at HDAC6 was 29.8.
As to `CN(c1ccc(OCCCC(=O)NO)cc1)c1ncnc2ccccc12` [II-13, N-hydroxy-4-(4-(methyl(4-quinazolinyl)amino)phenoxy)butanamide], the IC50 in [1] is 100 to 1000 nM; in [2] it was 100 to 1000 nM; in [3], 100 to 1000 nM; in the test with Human melanoma A375 it was 100 to 1000 nM; in test [4] it was 100 to 1000 nM; at HDAC1 (Table 2), 10 to 100 nM. Further, the IC50 against HDAC1 (Table 3) is 76 nM; against HDAC6 (Table 2), 10 to 100 nM; against HDAC6 (Table 3), 34 nM; against HDAC8 (IC50 HDAC8, Table 2) it was greater than 1000 nM; on HDAC8 (read-out: IC50 HDAC8, Table 3), 2460 nM. In addition, at HDAC6, the “Selection Ratio HDAC1/6” value worked out at 2.2. In addition, the “Selection Ratio HDAC8/6” value at HDAC6 is reported as 72.3.
With `CN(c1ccc(OCCCCCC(=O)NO)cc1)c1ncnc2ccccc12` [II-15, N-hydroxy-6-(4-(methyl(4-quinazolinyl)amino)phenoxy)hexanamide], the IC50 in test [1] is greater than 1000 nM; in test [2] it was greater than 1000 nM; in [3], greater than 1000 nM; with Human melanoma A375, 100 to 1000 nM; in [4], greater than 1000 nM; on HDAC1 (Table 2), 100 to 1000 nM. Moreover, the IC50 was 176 nM at HDAC1 (Table 3); 10 to 100 nM at HDAC6 (Table 2); 19 nM against HDAC6 (Table 3); greater than 1000 nM against HDAC8 (IC50 HDAC8, Table 2); 1060 nM on HDAC8 (read-out: IC50 HDAC8, Table 3). The “Selection Ratio HDAC1/6” value on HDAC6 stood at 9.3. Also, at HDAC6, the “Selection Ratio HDAC8/6” value came to 55.7.
`Cc1nc(N(C)c2cccc(OCC(=O)NO)c2)c2ccccc2n1` [III-12, N-hydroxy-2-(3-(methyl(2-methyl-4-quinazolinyl)amino)phenoxy)acetamide]: the IC50 was 100 to 1000 nM in [1]; 100 to 1000 nM in test [2]; 100 to 1000 nM in test [3]; greater than 1000 nM with Human melanoma A375; 100 to 1000 nM in test [4]; 100 to 1000 nM against HDAC1 (Table 2). Besides, the IC50 against HDAC6 (Table 2) is 10 to 100 nM; at HDAC8 (IC50 HDAC8, Table 2), greater than 1000 nM.
For `Cc1nc(N(C)c2ccc(Oc3ccc(C(=O)NO)cn3)cc2)c2ccccc2n1` [II-7, N-hydroxy-6-(4-(methyl(2-methyl-4-quinazolinyl)amino)phenoxy)nicotinamide], the IC50 (in [1]; in test [2]; in [3]; in the test with Human melanoma A375; in test [4]; on HDAC1 (Table 2)) was 100 to 1000 nM throughout. Also, the IC50 against HDAC1 (Table 3) was 638 nM; at HDAC6 (Table 2), less than 10 nM; on HDAC6 (Table 3) it was 5.8 nM; against HDAC8 (IC50 HDAC8, Table 2), greater than 1000 nM; at HDAC8 (IC50 HDAC8, Table 3), 1260 nM. In addition, the “Selection Ratio HDAC1/6” value on HDAC6 turned out to be 110.0. The “Selection Ratio HDAC8/6” value on HDAC6 was 218.1.
As to `Cc1nc(N(C)c2cccc(OCCCCCC(=O)NO)c2)c2ccccc2n1` [III-15, N-hydroxy-6-(3-(methyl(2-methyl-4-quinazolinyl)amino)phenoxy)hexanamide], the IC50 was 100 to 1000 nM in test [1]; 100 to 1000 nM in [2]; 100 to 1000 nM in [3]; greater than 1000 nM in the test with Human melanoma A375; 100 to 1000 nM in [4]; 10 to 100 nM against HDAC1 (Table 2). Besides, the IC50 against HDAC6 (Table 2) is 10 to 100 nM; against HDAC8 (IC50 HDAC8, Table 2) it was greater than 1000 nM.
On to `Cc1nc(Nc2ccc(OCCC(=O)NO)cc2)c2ccccc2n1` [II-24, N-hydroxy-3-(4-((2-methyl-4-quinazolinyl)amino)phenoxy)propionamide], for which the IC50 (in [1]; in test [2]; in test [3]; with Human melanoma A375; in [4]; against HDAC1 (Table 2)) was greater than 1000 nM each time. Moreover, the IC50 was 100 to 1000 nM at HDAC6 (Table 2) and greater than 1000 nM on HDAC8 (IC50 HDAC8, Table 2).
As for `COc1ccc(N(C)c2nc(C)nc3ccccc23)cc1OCCCCCC(=O)NO` [III-4, N-hydroxy-6-(2-methoxy-5-(methyl(2-methyl-4-quinazolinyl)amino)phenoxy)hexanamide], the IC50 (in [1]; in test [2]; in test [3]; in the test on Human melanoma A375; in test [4]; against HDAC1 (Table 2)) was 100 to 1000 nM in each case. Also, the IC50 against HDAC6 (Table 2) is 10 to 100 nM; against HDAC8 (IC50 HDAC8, Table 2), greater than 1000 nM.

(Values after US10532053B2, “Histone deacetylase inhibitor, and preparation method and use thereof” (GUANGDONG ZHONGSHENG PHARMACEUTICAL CO., LTD, priority 2015, dated 2020).)
